Reference: ChEMBL document CHEMBL5247614, “An overview of aryl hydrocarbon receptor ligands in the Last two decades (2002-2022): A medicinal chemistry perspective” (Eur J Med Chem, 2022)

Assays:
CYP1A1 [1] = assay: Upregulation of CYP1A1 gene expression in human MDA-MB-468 cells transfected with XRE plasmid containing AhR responsive luciferase construct and renilla luciferase assessed as fold change in gene expression at 1 uM incubated for 1 hr by dual-glo luciferase assay relative to control; assay type: ADME, cell-based; conditions: read-out: FC
CYP1A1 [2] = assay: Upregulation of CYP1A1 gene expression in human MDA-MB-468 cells transfected with XRE plasmid containing AhR responsive luciferase construct and renilla luciferase assessed as fold change in gene expression at 1 uM incubated for 24 hrs by dual-glo luciferase assay relative to control; assay type: ADME, cell-based; conditions: read-out: FC
[3] = molecular target: T1, Aryl hydrocarbon receptor (Homo sapiens, UniProt P35869); assay: Antagonist activity at AhR (unknown origin) assessed as inhibition of TCDD-induced luciferase activity
T1 sequence (P35869 whole entry): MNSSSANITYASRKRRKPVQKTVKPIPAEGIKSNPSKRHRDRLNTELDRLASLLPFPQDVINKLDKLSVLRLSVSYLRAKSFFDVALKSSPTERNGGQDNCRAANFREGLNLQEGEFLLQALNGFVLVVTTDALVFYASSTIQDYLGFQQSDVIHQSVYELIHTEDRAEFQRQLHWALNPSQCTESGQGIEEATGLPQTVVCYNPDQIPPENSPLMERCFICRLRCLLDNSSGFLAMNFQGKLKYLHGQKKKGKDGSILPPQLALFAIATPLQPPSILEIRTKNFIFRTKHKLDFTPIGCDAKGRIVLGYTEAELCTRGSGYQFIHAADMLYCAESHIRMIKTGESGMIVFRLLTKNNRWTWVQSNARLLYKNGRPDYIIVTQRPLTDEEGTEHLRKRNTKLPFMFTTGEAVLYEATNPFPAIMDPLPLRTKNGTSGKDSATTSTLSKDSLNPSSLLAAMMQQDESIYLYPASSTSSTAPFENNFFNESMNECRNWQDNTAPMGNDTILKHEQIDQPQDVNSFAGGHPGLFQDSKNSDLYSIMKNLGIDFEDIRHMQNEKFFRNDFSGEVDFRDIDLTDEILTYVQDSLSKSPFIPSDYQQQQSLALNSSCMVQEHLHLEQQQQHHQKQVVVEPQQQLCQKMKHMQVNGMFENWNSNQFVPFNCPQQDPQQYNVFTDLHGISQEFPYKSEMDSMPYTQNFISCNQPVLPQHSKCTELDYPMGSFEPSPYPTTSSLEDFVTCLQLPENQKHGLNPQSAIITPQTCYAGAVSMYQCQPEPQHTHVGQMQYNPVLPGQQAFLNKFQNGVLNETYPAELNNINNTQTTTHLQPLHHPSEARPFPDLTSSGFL

[4] = molecular target: T1, Aryl hydrocarbon receptor; assay: Antagonist activity at AhR (unknown origin)
[5] = molecular target: T1, Aryl hydrocarbon receptor
[6] = molecular target: T1, Aryl hydrocarbon receptor; assay: Binding affinity to AhR (unknown origin) assessed as dissociation constant
[7] = molecular target: T1, Aryl hydrocarbon receptor; assay: Antagonist activity at AhR (unknown origin) expressed in human U87 cells assessed as inhibition of kynurenic acid-induced transactivation by Renilla/Firefly based dual-glo luciferase assay; assay type: cell-based
[8] = Inhibition of kynurenic acid-induced CYP1A1 gene expression in human U-937 cells by qPCR analysis; assay type: ADME, cell-based
[9] = molecular target: T2, Aryl hydrocarbon receptor (Rattus norvegicus, UniProt P41738); assay: Inhibition of TCDD binding to rat liver cytosol AhR; assay type: subcellular
T2 sequence (P41738 whole entry): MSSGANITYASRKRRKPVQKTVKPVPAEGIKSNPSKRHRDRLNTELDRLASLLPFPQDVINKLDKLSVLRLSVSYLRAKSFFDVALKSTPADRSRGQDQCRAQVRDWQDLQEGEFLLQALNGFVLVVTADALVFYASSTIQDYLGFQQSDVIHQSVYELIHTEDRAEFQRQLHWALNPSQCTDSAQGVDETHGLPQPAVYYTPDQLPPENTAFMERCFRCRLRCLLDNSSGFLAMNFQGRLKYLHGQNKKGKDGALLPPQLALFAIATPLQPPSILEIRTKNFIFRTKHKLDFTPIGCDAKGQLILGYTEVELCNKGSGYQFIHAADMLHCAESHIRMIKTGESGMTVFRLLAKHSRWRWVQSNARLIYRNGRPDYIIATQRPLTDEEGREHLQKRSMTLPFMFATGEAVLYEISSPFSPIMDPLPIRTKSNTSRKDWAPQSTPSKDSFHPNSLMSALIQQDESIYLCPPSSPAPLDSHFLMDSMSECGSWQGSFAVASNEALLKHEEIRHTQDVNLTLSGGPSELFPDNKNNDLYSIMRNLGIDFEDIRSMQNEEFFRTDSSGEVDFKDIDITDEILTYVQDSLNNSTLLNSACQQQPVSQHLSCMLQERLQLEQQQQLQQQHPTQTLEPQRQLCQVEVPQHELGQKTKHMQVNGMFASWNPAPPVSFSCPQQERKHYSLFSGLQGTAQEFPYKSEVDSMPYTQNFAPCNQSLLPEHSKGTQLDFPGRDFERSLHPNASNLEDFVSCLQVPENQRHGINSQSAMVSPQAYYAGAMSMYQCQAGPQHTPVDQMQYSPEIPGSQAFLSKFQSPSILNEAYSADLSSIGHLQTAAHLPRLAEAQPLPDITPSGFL

[10] = molecular target: T2, Aryl hydrocarbon receptor; assay: Antagonist activity at AhR in rat liver cytosol assessed as inhibition of TCDD-induced AhR/DNA complex formation by gel retardation assay; assay type: subcellular
[11] = molecular target: T1, Aryl hydrocarbon receptor; assay: Agonist activity at AhR (unknown origin)
[12] = molecular target: T1, Aryl hydrocarbon receptor; assay: Antagonist activity at AhR (unknown origin) assessed as inhibition of receptor activation
[13] = molecular target: T1, Aryl hydrocarbon receptor; assay: Activation of human AhR expressed in Saccharomyces cerevisiae YCM3 coexpressing ARNT incubated for 18 hrs
[14] = molecular target: T1, Aryl hydrocarbon receptor; assay: Modulator activity at AhR (unknown origin)
Saccharomyces cerevisiae = assay: Activation of transcription in yeast expressing AhR and ARNT; assay type: functional, organism-based

## Nc1ccccc1N1C(=O)c2cccc3cccc(c23)C1=O
CYP1A1 [1]
  fold induction at 1 h, 1 µM: 25
CYP1A1 [2]
  fold induction at 24 h, 1 µM: 250

## Cc1ccccc1/N=N/c1ccc(NC(=O)c2ccnn2C)c(C)c1
[3]
  IC50: 30 nM

## Cc1[nH]c2ccccc2c1C
[4]
  IC50: 11 µM

## CC(C)n1cnc2c(NCCc3ccc(O)cc3)nc(-c3csc4ccccc34)nc21
[5]
  IC50: 127 nM

## c1ccc2c(c1)[nH]c1cc3c(cc12)[nH]c1ccccc13
[6]
  Kd: 0.19 nM

## CC(CO)NC(=O)c1cc(-c2ccc(Cl)cc2)nn(-c2cccc(F)c2)c1=O (centres undefined)
[7]
  IC50: 39.9 nM
[8]
  IC50: 70.7 µM

## COc1ccc(-c2coc3ccccc3c2=O)cc1N
[9]
  IC50: 4 µM
[10]
  IC50: 1000 nM

## O=c1c(Cc2c[nH]c3ccccc23)nccc2c1[nH]c1ccccc12
[11]
  EC50: 12 nM

## O=C(NCC(O)C(F)(F)F)c1cc(-c2ccc(OC(F)(F)F)cc2)nn(-c2cccnc2)c1=O (centres undefined)
[4]
  IC50: 0.0822 µM

## O=C1CC(C(=O)O)c2c1oc(=O)c1cc(O)c(O)c(O)c21 (centres undefined)
[12]
  EC70: 3.9 µM

## CC(C)c1cnn2c(N[C@@H]3CCc4[nH]c5ccccc5c4C3)nc(-c3cncc(F)c3)nc12
[4]
  IC50: < 0.5 µM

## Cc1[nH]c2c(C)cccc2c1C
[4]
  IC50: 12 µM

## c1ccc2c(c1)Nc1nc3ccccc3c3ccnc-2c13
[11]
  EC50: 0.01 nM

## Clc1cc2c(cc1Cl)Oc1cc(Cl)c(Cl)cc1O2 [2,3,7,8-TETRACHLORODIBENZO-P-DIOXIN]
[13]
  EC50: 9 nM

## c1ccc2c(Cc3c[nH]c4ccccc34)c[nH]c2c1 [ARUNDINE]
[6]
  Kd: 90 nM
[14]
  EC50: 78 µM

## CCS(=O)(=O)c1ccc2oc(-c3ccc4ccccc4c3)nc2c1 [EZUTROMID]
[6]
  Kd: 50 nM

## O=C(O)Cc1c[nH]c2ccccc12 [INDOLE-3-ACETIC ACID]
Saccharomyces cerevisiae
  EC50: 300 µM

## c1ccc2[nH]ccc2c1 [INDOLE]
Saccharomyces cerevisiae
  EC50: 300 µM

## NCCc1c[nH]c2ccccc12 [TRYPTAMINE]
Saccharomyces cerevisiae
  EC50: 300 µM

## N[C@@H](Cc1c[nH]c2ccccc12)C(=O)O [TRYPTOPHAN]
Saccharomyces cerevisiae
  EC50: 300 µM
